Reference: patent US4680290A, “Steroids for the treatment of hypercholesterolemia” (Hoffmann-La Roche Inc., priority 1983, dated 1987)

Assays:
[1] = system: intestinal resorption of cholesterol; assay: inhibition of the intestinal resorption of cholesterol in squirrel monkeys (CHORES); type: in vivo; conditions: 100 μmol/kg p.o., [26-^14 C]-cholesterol in feed, faeces collected 2.5 days, % of control values determined prior to medication
Text: Squirrel monkeys are orally administered the substances to be investigated together with a feed containing a protein, starch, triolein and [26-^14 C]-cholesterol. Thereupon, the faeces is collected for 2.5 days. The difference between the administered and the excreted radioactive cholesterol determined in the faeces is taken as the measurement of resorbed cholesterol. The cholesterol resorption (CHORES) is expressed in percentages of the control values determined prior to the medication.
(§1) The results which have been obtained with some representative products in accordance with the invention are reproduced in the Table hereinafter. There are given for each of the compounds indicated therein the dosage administered (in μmol/kg p.o.) as well as in each case the cholesterol resorption (CHORES) determined in percentages of the cholesterol resorption in the pre-period. Moreover, the Table contains data concerning the acute toxicity of the compounds investigated (LD50 in mg/kg in the case of single oral administration to mice).

[2] = acute toxicity, single oral administration to mice; conditions: mouse, in vivo; single oral administration (p.o.) to mice
Text: as §1

| SMILES | CHORES in % of the pre-period (cholesterol resorption) [1] [%] | LD50 [2] [mg/kg] |
| --- | --- | --- |
| CC[C@H](/C=C/[C@@H](C)[C@H]1CC[C@H]2[C@@H]3CC=C4C[C@@H](OP(=O)([O-])OCC[N+](C)(C)C)CC[C@]4(C)[C@H]3CC[C@]12C)C(C)C [Stigmasta-5,22-dien-3β-yloxy-phosphorylcholine] | 33 | 5000 |
| CC[C@H](CC[C@@H](C)[C@H]1CC[C@H]2[C@@H]3CC=C4C[C@@H](OP(=O)([O-])OCC[N+](C)(C)C)CC[C@]4(C)[C@H]3CC[C@]12C)C(C)C [Stigmast-5-en-3β-yloxy-phosphorylcholine] | 52 | 5000 |
| CC(C)CCC[C@@H](C)[C@H]1CC[C@H]2[C@@H]3CC[C@H]4C[C@@H](OP(=O)([O-])OCC[N+](C)(C)C)CC[C@]4(C)[C@H]3CC[C@]12C [3β-Cholestanyloxy-phosphorylcholine] | 26 | 5000 |
| CC[C@H](CC[C@@H](C)[C@H]1CC[C@H]2[C@@H]3CC[C@H]4C[C@@H](OP(=O)([O-])OCC[N+](C)(C)C)CC[C@]4(C)[C@H]3CC[C@]12C)C(C)C [3β-Stigmastanyloxy-phosphorylcholine, 3β-stigmastanyloxy-phosphorylcholine] | 36 | 4000 |
